Data as given in patent US20230406865A1, “CRYSTAL FORM OF FREE BASE OF INHIBITOR CONTAINING BICYCLIC RING DERIVATIVE AND PREPARATION METHOD AND APPLICATION OF CRYSTAL FORM” (SHANGHAI HANSOH BIOMEDICAL CO., LTD., priority 2020, published 2023).

Experiments:
KDR kinase = target: T1, KDR kinase (Homo sapiens, UniProt P35968); experiment: HTRF kinase activity inhibition, KDR; assay type: biochemical; details: for IC50: HTRF, ATP at Km; for Ratio (KDR/RET): KDR IC50 / RET IC50
T1 construct: purchased Carna 08-191
T1 sequence (P35968 20-1356): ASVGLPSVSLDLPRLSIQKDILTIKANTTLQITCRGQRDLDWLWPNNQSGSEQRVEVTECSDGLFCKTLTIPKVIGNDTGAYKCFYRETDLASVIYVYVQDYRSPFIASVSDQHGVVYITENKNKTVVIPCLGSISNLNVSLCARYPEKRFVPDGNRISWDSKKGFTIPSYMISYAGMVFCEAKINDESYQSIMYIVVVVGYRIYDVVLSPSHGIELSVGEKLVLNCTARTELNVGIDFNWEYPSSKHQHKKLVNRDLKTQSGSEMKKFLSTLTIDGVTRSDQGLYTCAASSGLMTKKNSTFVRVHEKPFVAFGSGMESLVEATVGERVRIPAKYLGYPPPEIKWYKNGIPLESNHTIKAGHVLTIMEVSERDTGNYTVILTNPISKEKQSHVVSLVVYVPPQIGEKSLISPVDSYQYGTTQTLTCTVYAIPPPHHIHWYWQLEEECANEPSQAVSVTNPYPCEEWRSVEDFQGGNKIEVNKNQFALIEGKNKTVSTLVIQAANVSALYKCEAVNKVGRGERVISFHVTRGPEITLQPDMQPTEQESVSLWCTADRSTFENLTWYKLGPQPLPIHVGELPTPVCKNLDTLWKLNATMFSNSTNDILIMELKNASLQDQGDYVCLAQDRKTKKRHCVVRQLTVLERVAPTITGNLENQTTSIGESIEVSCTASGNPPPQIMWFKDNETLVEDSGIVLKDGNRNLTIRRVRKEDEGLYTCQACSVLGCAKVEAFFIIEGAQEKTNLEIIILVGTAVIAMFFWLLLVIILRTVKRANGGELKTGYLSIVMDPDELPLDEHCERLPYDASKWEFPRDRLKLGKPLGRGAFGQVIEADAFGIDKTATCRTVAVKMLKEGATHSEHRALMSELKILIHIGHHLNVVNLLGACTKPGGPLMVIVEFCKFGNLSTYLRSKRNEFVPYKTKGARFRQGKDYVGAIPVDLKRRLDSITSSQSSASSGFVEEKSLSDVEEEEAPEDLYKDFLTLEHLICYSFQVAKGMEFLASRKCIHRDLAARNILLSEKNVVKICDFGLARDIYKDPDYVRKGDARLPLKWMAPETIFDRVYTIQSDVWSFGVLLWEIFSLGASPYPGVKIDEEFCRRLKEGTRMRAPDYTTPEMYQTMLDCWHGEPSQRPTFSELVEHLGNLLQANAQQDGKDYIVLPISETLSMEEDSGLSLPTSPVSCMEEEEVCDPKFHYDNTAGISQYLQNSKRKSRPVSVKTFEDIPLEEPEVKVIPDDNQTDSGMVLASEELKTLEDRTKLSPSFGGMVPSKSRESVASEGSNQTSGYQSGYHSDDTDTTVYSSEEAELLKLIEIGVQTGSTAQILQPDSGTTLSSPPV
Text: 2.2 Experimental Reagents: • KDR kinase was purchased from Carna Company, and the article number was 08-191; • HTRF KinEASE-TK kit was purchased from Cisbio Company, and the article number was 62TK0PEC; • ATP was purchased from Thermofisher Company, and the article number was PV3227; • 384-well plate was purchased from PerkinElmer Company, and the article number was 6007290.
In this experiment, the homogeneous time-resolved fluorescence (HTRF) method was used for the detection of compounds on KDR kinase activity.

RET kinase = target: T2, RET kinase (Homo sapiens, UniProt P07949); experiment: HTRF kinase activity inhibition, RET wild-type; assay type: biochemical; details: ATP at Km
T2 construct: purchased Carna 08-159
T2 sequence (P07949 29-1114): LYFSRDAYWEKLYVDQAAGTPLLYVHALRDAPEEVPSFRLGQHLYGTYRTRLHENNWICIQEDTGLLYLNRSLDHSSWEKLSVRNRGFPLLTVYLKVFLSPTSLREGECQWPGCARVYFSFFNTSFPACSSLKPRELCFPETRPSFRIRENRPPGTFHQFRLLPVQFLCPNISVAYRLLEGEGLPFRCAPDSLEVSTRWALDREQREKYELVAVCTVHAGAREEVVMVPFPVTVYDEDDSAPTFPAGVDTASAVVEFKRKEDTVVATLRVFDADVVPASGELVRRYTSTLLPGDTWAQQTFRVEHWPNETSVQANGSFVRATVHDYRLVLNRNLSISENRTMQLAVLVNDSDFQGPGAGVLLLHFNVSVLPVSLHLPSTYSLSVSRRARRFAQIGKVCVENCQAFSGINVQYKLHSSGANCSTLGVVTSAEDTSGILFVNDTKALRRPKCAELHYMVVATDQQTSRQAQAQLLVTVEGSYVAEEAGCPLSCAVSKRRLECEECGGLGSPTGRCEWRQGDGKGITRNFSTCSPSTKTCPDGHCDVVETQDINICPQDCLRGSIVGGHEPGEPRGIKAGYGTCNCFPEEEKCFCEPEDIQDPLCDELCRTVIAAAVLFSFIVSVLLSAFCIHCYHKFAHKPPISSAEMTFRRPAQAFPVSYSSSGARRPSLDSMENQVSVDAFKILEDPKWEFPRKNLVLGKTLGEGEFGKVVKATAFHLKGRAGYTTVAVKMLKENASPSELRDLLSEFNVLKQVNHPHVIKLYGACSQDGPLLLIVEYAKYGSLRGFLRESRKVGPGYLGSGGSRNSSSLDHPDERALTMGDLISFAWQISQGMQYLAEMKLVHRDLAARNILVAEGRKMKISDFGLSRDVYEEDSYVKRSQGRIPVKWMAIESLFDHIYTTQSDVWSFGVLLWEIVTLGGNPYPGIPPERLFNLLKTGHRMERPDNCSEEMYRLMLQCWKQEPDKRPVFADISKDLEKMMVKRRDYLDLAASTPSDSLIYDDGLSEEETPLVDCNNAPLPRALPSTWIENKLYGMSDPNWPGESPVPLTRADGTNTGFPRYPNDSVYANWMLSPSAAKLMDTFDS
Text: 2.2 Experimental Reagents: • RET enzyme was purchased from Carna Company, and the article number was 08-159; • RET M918T enzyme was purchased from Carna Company, and the article number was 08-508; • KIF5B-RET was purchased from SignalChem Company, the article number was R02-19FG-05; • CCDC6-RET was purchased from SignalChem Company, the article number was R02-19BG-05; • RET V804M enzyme was purchased from Thermofisher Company, and the article number was PV6223; • RET V804L enzyme was purchased from Thermofisher Company, and the article number was PV4397; • HTRF KinEASE-TK kit was purchased from Cisbio Company, and the article number was 62TK0PEC; • ATP was purchased from Thermofisher Company, and the article number was PV3227; • 384-well plate was purchased from PerkinElmer Company, and the article number was 6007290.
In this experiment, a homogeneous time-resolved fluorescence (HTRF) method was used for the detection of compounds on RET kinase activity.

SMILES	IC50 (KDR kinase) [nM]	Ratio (KDR/RET) (KDR kinase)	IC50 (RET kinase) [nM]
CC1(O)CC2(CN(c3cc(-c4ccc(N5CCC(C)(NC(=O)c6ncccc6Cl)CC5)nc4)c4c(C#N)cnn4c3)C2)C1 [Embodiment 89, 3-Chloro-N-(1-(5-(3-cyano-6-(6-hydroxy-6-methyl-2-azaspiro[3.3]heptan-2-yl)pyrazolo[1,5-a]pyridin-4-yl)pyridin-2-yl)-4-methylpiperidin-4-yl)picolinamide]	8.9	8	1.1
CC1(NC(=O)c2ncccc2Cl)CCN(c2ccc(-c3cc(N4CC(C(C)(C)O)C4)cn4ncc(C#N)c34)cn2)CC1 [Embodiment 88, 3-Chloro-N-(1-(5-(3-cyano-6-(3-(2-hydroxypropan-2-yl)azetidin-1-yl)pyrazolo[1,5-a]pyridin-4-yl)pyridin-2-yl)-4-methylpiperidin-4-yl)picolinamide]	61	49	1.2
COc1ccc(CN2C3CC2CN(c2ccc(-c4cc(N5CCC(C)(O)CC5)cn5ncc(C#N)c45)cn2)C3)cn1 [Embodiment 35, 6-(4-Hydroxy-4-methylpiperidin-1-yl)-4-(6-(6-((6-methoxypyridin-3-yl)methyl)-3,6-diazabicyclo[3.1.1]heptan-3-yl)pyridin-3-yl)pyrazolo[1,5-a]pyridine-3-carbonitrile]	6.2	13	0.49
COc1ccc(CN2C3CC2CN(c2ccc(-c4cc(NC(=O)C5(C#N)CC5)cn5ncc(C#N)c45)cn2)C3)cn1 [Embodiment 74, 1-Cyano-N-(3-cyano-4-(6-(6-((6-methoxypyridin-3-yl)methyl)-3,6-diazabicyclo[3.1.1]heptan-3-yl)pyridin-3-yl)pyrazolo[1,5-a]pyridin-6-yl)cyclopropane-1-carboxamide]	247	137	1.8
CC1(C#N)CN(c2cc(-c3ccc(N4CCC(C)(NC(=O)c5ncccc5Cl)CC4)nc3)c3c(C#N)cnn3c2)C1 [Embodiment 96, 3-Chloro-N-(1-(5-(3-cyano-6-(3-cyano-3-methylazetidin-1-yl)pyrazolo[1,5-a]pyridin-4-yl)pyridin-2-yl)-4-methylpiperidin-4-yl)picolinamide]	15.8	22	0.72
COc1ccc(CN2C3CC2CN(c2ccc(-c4cc(OCC5(C#N)CC(F)(F)C5)cn5ncc(C#N)c45)cn2)C3)cn1 [Embodiment 57, 6-((1-Cyano-3,3-difluorocyclobutyl)methoxy)-4-(6-(6-((6-methoxypyridin-3-yl)methyl)-3,6-diazabicyclo[3.1.1]heptan-3-yl)pyridin-3-yl)pyrazolo[1,5-a]pyridine-3-carbonitrile]	209	187	1.1
COc1ccc(CN2C3CC2CN(c2ccc(-c4cc(N5CC(C)(O)C5)cn5ncc(C#N)c45)cn2)C3)cn1 [Embodiment 33, 6-(3-Hydroxy-3-methylazetidin-1-yl)-4-(6-(6-((6-methoxypyridin-3-yl)methyl)-3,6-diazabicyclo[3.1.1]heptan-3-yl)pyridin-3-yl)pyrazolo[1,5-a]pyridine-3-carbonitrile]	5.6	14	0.4
COc1ccc(CN2C3CC2CN(c2ccc(-c4cc(OCCCS(C)(=N)=O)cn5ncc(C#N)c45)cn2)C3)cn1 (stereo not drawn) [Embodiment 6, 4-(6-(6-((6-Methoxypyridin-3-yl)methyl)-3,6-diazabicyclo[3.1.1]heptan-3-yl)pyridin-3-yl)-6-(3-(S-methylsulfonimidoyl)propoxy)pyrazolo[1,5-a]pyridine-3-carbonitrile]	27.7	35	0.79
COc1ccc(CN2C3CC2CN(c2ccc(-c4cc(N5CCC(C)(O)C5)cn5ncc(C#N)c45)cn2)C3)cn1 (stereo not drawn) [Embodiment 34, 6-(3-Hydroxy-3-methylpyrrolidin-1-yl)-4-(6-(6-((6-methoxypyridin-3-yl)methyl)-3,6-diazabicyclo[3.1.1]heptan-3-yl)pyridin-3-yl)pyrazolo[1,5-a]pyridine-3-carbonitrile]	4.7	7	0.7
